Test results: publication PMC3479139, “Diverse Small Molecule Inhibitors of Human Apurinic/Apyrimidinic Endonuclease APE1 Identified from a Screen of a Large Public Collection” (PLoS ONE, 2012)

Experiments:
[1] = target: double-stranded 17-mer DNA fragment; assay: ThO (Thiazole Orange) DNA displacement assay; type: binding; conditions: read-out: ThO-DNA binding IC50;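 also: miniaturized displacement of the intercalating dye from unlabeled duplex DNA, used to flag nonspecific DNA binders, chiefly intercalators, groove binders may be missed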
APE1 [2] = target: T1, APE1 (Homo sapiens, UniProt P27695); assay: Fluorogenic kinetic qHTS APE1 incision assay (primary screen and retest of cherrypicked samples); type: biochemical;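 also: purified APE1 cleaving a fluorophore/dark-quencher labelled 17-mer duplex DNA bearing a tetrahydrofuran AP site, fluorescence rise followed kinetically over the first 2 min, inhibition normalized to controls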
T1 construct: made in house

APE1 [3] = target: T1, APE1; assay: Gel-based APE1 incision assay with fluorescence (TAMRA) detection; type: biochemical
APE1 [4] = target: T1, APE1; assay: Fluorescence polarization (FP) displacement assay of APE1 binding to AP-DNA probe; conditions: read-out: FP IC50;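 also: TAMRA 5′-labeled duplex DNA with THF abasic site (5 nM) and APE1 (20 nM), Mg2+-free buffer, 15 min at room temperature, inhibition seen as lowered polarization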
Description: Double-stranded oligodeoxynucleotide containing tetrahydrofuran (THF) abasic site labeled with TAMRA at the 5′-end was used as the labeled binding probe. Inhibition of APE1 binding to labeled probe was detected by a decrease in the fluorescence polarization (FP) of the fluorophore. Briefly, 4 µL mixture of 20 nM APE1 and 5 nM probe contained in the enzymatic assay buffer from which Mg^2+ was omitted, was dispensed into 1536-well Greiner black solid bottom plates. Compounds (23 nL) were transferred via pintool, and after a 15-minute incubation at room temperature, fluorescence polarization was measured in a ViewLux High-throughput CCD imager (480 nm excitation and 540 nm emission) to determine the degree of probe displacement caused by the test compounds.

E. coli Endo IV = target: T2, E. coli Endo IV (Escherichia coli, UniProt P0A6C1); assay: E. coli Endo IV profiling counterscreen; type: biochemical; conditions: for IC50: read-out: EndoIV IC50;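 as to all read-outs here: selectivity counterscreen of candidate APE1 inhibitors against the bacterial endonuclease Endo IV, run in the same assay format as the primary APE1 high-throughput screen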
T2 construct: made in house
Excerpt: In order to screen out nonselective compounds, such as non-specific DNA binders and inhibitors of related enzymes, we used a miniaturized ThO DNA displacement assay and a counterscreen against the bacterial endonuclease E. coli Endo IV, respectively, following the previously published protocols [21].
To probe the selectivity of the candidate APE1 inhibitors, we tested them against E. coli EndoIV [36], employing the same assay as used in the HTS.

APE1 [5] = target: T1, APE1; assay: Gel-based radiotracer (32P) APE1 incision assay; type: biochemical; parameters: concentration or dose not given beside the values; conditions: percent incision shown; entries 1-112;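 also: APE1 incision reactions ran 5 min at 37 °C, with cleaved product and intact substrate resolved electrophoretically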
[6] = initial quantitative high-throughput screen, read-out: APE1 qHTS IC50
[7] = retest of cherrypicked sample, read-out: APE1 Retest IC50
[8] = estimated IC50, fluorophore detection, entries 113-223, read-out: F-PAGE Assay IC50
[9] = entries 113-223: fluorophore detection, estimated IC50, read-out: Gel-based electrophoretic separation assay with fluorophore detection, estimated IC50 (column headed Radiotracer Assay (%Activity))

T1 sequence (P27695 whole entry): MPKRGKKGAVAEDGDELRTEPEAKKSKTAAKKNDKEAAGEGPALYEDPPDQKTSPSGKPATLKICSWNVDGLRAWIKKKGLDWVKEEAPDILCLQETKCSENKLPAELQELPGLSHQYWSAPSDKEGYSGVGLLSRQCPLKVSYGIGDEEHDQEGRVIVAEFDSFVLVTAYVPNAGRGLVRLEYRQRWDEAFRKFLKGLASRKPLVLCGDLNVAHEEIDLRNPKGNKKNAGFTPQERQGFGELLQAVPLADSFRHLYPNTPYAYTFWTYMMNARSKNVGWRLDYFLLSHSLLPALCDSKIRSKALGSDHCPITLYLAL

| SMILES | IC50 [1] [µM] | IC50 (APE1 [2]; [6]) [µM] | IC50 (APE1 [2]; [7]) [µM] | IC50 (APE1 [3]; [8]) [µM] | IC50 (APE1 [4]) [µM] | IC50 (E. coli Endo IV) [µM] | IC50 (APE1 [3]; [9]) [µM] | Radiotracer Assay (%Activity) (APE1 [5]) [%] | Concentration response against EndoIV (E. coli Endo IV) |
| --- | --- | --- | --- | --- | --- | --- | --- | --- | --- |
| NS(=O)(=O)c1ccc(NC(=O)CSc2nnc(NC3CC3)s2)cc1 [MLS002169032] | > 57 | 10.6 | 10.2 | 6.3 | > 57 | > 57 | – | – | – |
| COc1ccc(NC(=O)CN(C)C(=O)c2cccc(-n3cccc3)c2)cc1 [MLS001097639] | > 57 | 2.4 | 18.2 | 3.5 | > 57 | > 57 | – | – | – |
| CC1(C)CC2CC(C)(CN2C(=O)COC(=O)c2ccc(O)cc2O)C1 (centres unmarked) [MLS002251953] | > 57 | 10.6 | 14.5 | – | > 57 | > 57 | 15.8 | – | – |
| O=C(COC(=O)Cc1cccc(C(F)(F)F)c1)NCc1ccco1 [MLS002169571] | > 57 | 10.6 | 45.7 | 7.1 | > 57 | > 57 | – | – | – |
| C=CC1=C(C(=O)O)N2C(=O)[C@@H](NC(=O)/C(=N\OCC(=O)O)c3csc(N)n3)[C@H]2SC1 [MLS002222332] | > 57 | 11.9 | – | 2.8 | > 57 | > 57 | – | – | – |
| N#Cc1c(NC(=O)COC(=O)c2ccc(O)cc2O)sc2c1CCC2 [MLS001159876] | 11.5 | 11.9 | 18.2 | – | > 57 | > 57 | 11.2 | – | – |
| O=C(Nc1ccc2oc(-c3ccccc3F)nc2c1)c1ccc([N+](=O)[O-])o1 [MLS001194759] | 10.2 | 2.7 | 3.2 | 2.5 | > 57 | > 57 | – | – | – |
| NS(=O)(=O)c1ccc(N=Nc2ccc(=O)[nH]c2O)cc1 [MLS000738241] | > 57 | 7.5 | 12.9 | 3.5 | > 57 | > 57 | – | – | – |
| O=c1/c(=C/c2ccco2)sc2nc(-c3ccccc3Br)nn12 [MLS000039532] | > 57 | 22.4 | 7.9 | – | > 57 | > 57 | – | 9 | – |
| CC(=O)N[C@H]1C(O[C@@H]2O[C@H](C[C@@H](O)[C@H]3O[C@@H](N4CCC(=O)NC4=O)[C@H](O)[C@@H]3O)[C@H](O)[C@H](O)[C@H]2NC(=O)/C=C/CCCCCCCCCCC(C)C)OC(CO)[C@@H](O)[C@@H]1O (some centres unmarked) [NCGC00161652] | > 57 | 7.9 | 2.5 | – | 31.6 | > 57 | – | 26.5 | – |
| Cc1c(O)cc2c(c1O)C(=O)CC(c1ccc(O)cc1)O2 (centres unmarked) [MLS000876957] | > 57 | 1.6 | 4.5 | – | > 57 | > 57 | – | 44 | – |
| O=C1CC(=O)N(Cc2ccco2)C(=O)N1 [MLS000062734] | > 57 | 10 | 5.6 | – | > 57 | > 57 | – | 14 | – |
| C[C@@]1(C(=O)O)NCCc2cc(O)c(O)cc21 [NCGC00024700] | > 57 | 1.8 | – | – | > 57 | > 57 | – | 17.1 | – |
| COc1ccc(N2Cc3cccc(C(=O)O)c3C2=O)cc1 [MLS000120697] | > 57 | 12.6 | 3.9 | – | 7.9 | > 57 | – | 37 | – |
| O=C(Nc1ccc2nc(-c3ccco3)c(-c3ccco3)nc2c1)N1CCCCCC1 [MLS000050353] | > 57 | 3.5 | 4 | – | 12.6 | 15.8 | – | 41 | – |
| COc1ccc(N2CCN(C(=O)Cc3ccc(S(=O)(=O)N4CCOCC4)s3)CC2)cc1 [MLS000760918] | > 57 | 14.1 | – | – | > 57 | > 57 | – | 45 | – |
| CC(=O)c1ccc(NC(=O)c2ccc3nc(-c4ccco4)c(-c4ccco4)nc3c2)cc1 [MLS000534769] | 8.9 | 19.9 | 4 | – | > 57 | 10 | – | 11 | – |
| Cc1cccc(N2NC(=O)/C(=C/c3ccc(-c4ccc(Cl)c(C(=O)O)c4)o3)C2=O)c1 [MLS000621664] | > 57 | 17.8 | 12.6 | – | > 57 | > 57 | – | 32 | – |
| CC(C)C(C(=O)O)N1C(=O)/C(=C/C=C/c2ccco2)SC1=S (centres unmarked) [MLS000551672] | > 57 | 1.6 | 2.5 | – | 11.2 | > 57 | – | 19 | – |

| SMILES | IC50 [1] [µM] | IC50 (APE1 [2]; [6]) [µM] | IC50 (APE1 [2]; [7]) [µM] | IC50 (APE1 [3]; [8]) [µM] | IC50 (APE1 [4]) [µM] | IC50 (E. coli Endo IV) [µM] | IC50 (APE1 [3]; [9]) [µM] | Radiotracer Assay (%Activity) (APE1 [5]) [%] | Concentration response against EndoIV (E. coli Endo IV) |
| --- | --- | --- | --- | --- | --- | --- | --- | --- | --- |
| O=C(OCC1O[C@@H](OC(=O)c2cc(O)c(O)c(O)c2)[C@@H](OC(=O)c2cc(O)c(O)c(O)c2)[C@@H](OC(=O)c2cc(O)c(O)c(O)c2)[C@@H]1OC(=O)c1cc(O)c(O)c(O)c1)c1cc(O)c(O)c(O)c1 (some centres unmarked) [MLS000574902] | 4 | 0.01 | 0.006 | – | > 57 | > 57 | – | 8 | – |
| Cc1ccc(NC(=O)CN2C(=O)S/C(=C/c3ccc(-c4cc(C(=O)O)ccc4C)o3)C2=O)cc1C [MLS000530771] | > 57 | 19.9 | 7.1 | – | 10 | > 57 | – | 21 | – |
| Cc1cc(/C=C2\C(=O)NC(=O)N(Cc3ccccc3Cl)C2=O)c(C)n1-c1ccc(C(=O)O)cc1 [MLS000627094] | > 57 | 11.2 | 12.6 | – | 15.8 | > 57 | – | 2 | – |
| CCn1c(SCC(=O)O)nc2sc3c(c2c1=O)CCC3 [MLS000069140] | > 57 | 22.4 | 12.6 | – | > 57 | > 57 | – | 22.3 | – |
| COc1ccc2c(c1)c(=O)oc1cc(OCC(=O)NC3CCCCC3)ccc12 [MLS000594161] | > 57 | 11.2 | 5.6 | – | > 57 | > 57 | – | 38 | – |
| Cn1cnnc1SCC(=O)Nc1nc(-c2ccccc2)cs1 [MLS000711532] | > 57 | 28.2 | 10 | – | > 57 | > 57 | – | 32 | – |
| CC(=O)OCC1=C(C(=O)[O-])N2C(=O)C(NC(=O)CCCC(N)C(=O)O)C2SC1.[Na+] (centres unmarked) [NCGC00094863] | > 57 | 22.4 | – | – | > 57 | > 57 | – | 41 | – |
| Cc1ccc(NC(=O)CN2C(=O)S/C(=C\c3cccn3-c3cccc(C(=O)O)c3)C2=O)c(C)c1 [MLS000540800] | > 57 | 8.9 | 12.6 | – | 15.8 | > 57 | – | 0 | – |
| O=C(/C=C/c1ccco1)NCc1ccco1 [MLS000768482] | > 57 | 22.4 | 4.5 | – | > 57 | > 57 | – | 21 | – |
| CN(C)C(=O)Nc1ccc(Cl)c(Cl)c1 [NCGC00094525] | > 57 | 20 | 44.7 | – | > 57 | > 57 | – | 36.6 | – |
| CC(=O)Oc1cc2cccc(OC(C)=O)c(=O)c2c(OC(C)=O)c1OC(C)=O [MLS001049122] | > 57 | 0.4 | 6.3 | – | > 57 | > 57 | – | 37 | – |
| O=c1c(O)c(Br)ccc2c(Br)c(O)c(O)c(O)c12 [NCGC00160279] | 1.26 | 1.1 | 0.4 | – | > 57 | > 57 | – | 37.9 | – |
| COc1ccc(C(CC(=O)N2CCCCC2)c2c(OC)cc(OC)c3c(-c4ccccc4)cc(=O)oc23)cc1 (centres unmarked) [MLS000879461] | > 57 | 25.1 | 7.9 | – | 14.1 | > 57 | – | 24 | – |
| O=C(O)c1ccc(-n2cccc2/C=C2/NC(=O)N(c3cccc(Cl)c3)C2=O)cc1 [MLS000621695] | 15.8 | 2.8 | 1.6 | – | 11.2 | > 57 | – | 6 | – |
| O=C(CCCN1C(=O)/C(=C/c2ccco2)SC1=S)Nc1ccccc1C(=O)O [MLS000778775] | > 57 | 19.9 | 12.6 | – | 5 | > 57 | – | 3 | – |
| CCC(C)C(=O)OCC1(c2ccc(C)cc2OC(=O)C(C)C)CO1 (centres unmarked) [MLS000876981] | > 57 | 8.9 | 11.2 | – | > 57 | > 57 | – | 36 | – |
| O=C1C=CC2=C3c4cc(O)c(O)cc4CC3(O)COC2=C1O (centres unmarked) [NCGC00095664] | 11.2 | 0.1 | 0.1 | – | 15.8 | > 57 | – | 4.1 | – |
| Cc1ccc2c(=O)c3ccccc3n(CCCN)c2c1C [NCGC00161415] | 14.1 | 4.5 | 10 | – | 1.3 | – | – | 4.6 | complete concentration response curves |
